These results are taken from patent publication US8613914B2, “Peptidomimetic sulfamide compounds and antiviral uses thereof” (Novartis AG, priority 2009, dated 2013).

Sequence of HCV NS3-4A serine protease (full-length NS3-4A protein) (P26664 1027-1657): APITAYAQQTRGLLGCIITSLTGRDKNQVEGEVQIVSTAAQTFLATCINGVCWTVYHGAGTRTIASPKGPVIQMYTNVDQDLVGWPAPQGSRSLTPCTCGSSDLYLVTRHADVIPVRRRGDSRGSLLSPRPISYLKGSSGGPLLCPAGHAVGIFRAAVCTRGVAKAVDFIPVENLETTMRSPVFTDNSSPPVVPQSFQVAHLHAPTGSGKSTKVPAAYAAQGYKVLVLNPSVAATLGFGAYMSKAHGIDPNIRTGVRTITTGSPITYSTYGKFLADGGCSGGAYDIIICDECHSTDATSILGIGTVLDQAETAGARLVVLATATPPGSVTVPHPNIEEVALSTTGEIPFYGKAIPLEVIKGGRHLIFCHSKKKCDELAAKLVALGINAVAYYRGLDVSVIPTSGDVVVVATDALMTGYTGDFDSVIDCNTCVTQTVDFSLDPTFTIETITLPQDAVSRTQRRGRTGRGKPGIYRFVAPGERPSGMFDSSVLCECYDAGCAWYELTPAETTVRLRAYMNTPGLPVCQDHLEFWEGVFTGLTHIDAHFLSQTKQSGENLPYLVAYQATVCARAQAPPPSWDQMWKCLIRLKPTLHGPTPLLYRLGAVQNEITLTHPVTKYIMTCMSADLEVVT
Sequence of HCV NS3-4A serine protease (full-length NS3-4A protein) (P26664 1658-1711 partner): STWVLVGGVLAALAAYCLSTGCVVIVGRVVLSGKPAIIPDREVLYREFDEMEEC

The experiment deals with HCV NS3-4A serine protease (full-length NS3-4A protein) (Hepatitis C virus genotype 1a (isolate 1) (HCV), UniProt P26664). Briefly: HCV NS3-4A protease assay. The format is biochemical, HCV genotype 1a. Conditions: strain HCV-1, fluorogenic peptide substrate, read-out: Protease assay Ex. 12 IC50. As to the method:
The inhibitory activity of certain compounds of Table A against HCV NS3-4A serine protease is determined in a homogenous assay using the full-length NS3-4A protein (genotype 1a, strain HCV-1) and a commercially available internally-quenched fluorogenic peptide substrate as described by Taliani, M., et al. 1996 Anal. Biochem. 240:60-67, which is incorporated by reference in its entirety.
Turning to `CCCN(C)S(=O)(=O)NC(=O)[C@@]1(NC(=O)[C@@H]2C[C@@]3(CN2C(=O)[C@@H](NC(=O)[C@@H](NC(=O)[C@@H]2CCCCN2C(C)C)C2CCCCC2)C(C)(C)C)C(C)(C)C32CCC2)C[C@H]1CC` [Compound 142, (5R,8S)-7-[(2S)-2-{[(2S)-2-cyclohexyl-2-({[(2S)-1-isopropylpiperidin-2-yl]carbonyl}amino)acetyl]amino}-3,3-dimethylbutanoyl]-N-[(1R,2R)-2-ethyl-1-({[methyl(propyl)amino]sulfonyl}carbamoyl)cyclopropyl]-10,10-dimethyl-7-azadispiro[3.0.4.1]decane-8-carboxamide], the concentration for half-maximal inhibition (IC50) – broadly, the midpoint of a concentration-inhibition curve – was found to be 10 nM. The result for `C=C[C@@H]1C[C@]1(NC(=O)C1C[C@@]2(CN1C(=O)[C@@H](NC(=O)[C@@H](NC(=O)[C@@H]1CCCCN1C(C)C)C(C)(C)C)C1CCOCC1)C(C)(C)C21CCC1)C(=O)NS(=O)(=O)N1CCCC1` (stereo partly drawn) [Compound 67, (5R)-7-[(2S)-2-[(N-{[(2S)-1-isopropylpiperidin-2-yl]carbonyl}-3-methyl-L-valyl)amino]-2-(tetrahydro-2H-pyran-4-yl)acetyl]-10,10-dimethyl-N-{(1R,2S)-1-[(pyrrolidin-1-ylsulfonyl)carbamoyl]-2-vinylcyclopropyl}-7-azadispiro[3.0.4.1]decane-8-carboxamide] reads 20 nM; that for `C=C[C@@H]1C[C@]1(NC(=O)[C@@H]1C[C@@]2(CN1C(=O)[C@@H](NC(=O)[C@@H](NC(=O)[C@@H]1CCCN(CC)C1)C(C)(C)C)C(C)(C)C)C(C)(C)C21CCC1)C(=O)NS(=O)(=O)N1CCOCC1` [Compound 7, (5R,8S)-7-[(2S)-2-{[(2S)-2-({[(3R)-1-ethylpiperidin-3-yl]carbonyl}amino)-3,3-dimethylbutanoyl]amino}-3,3-dimethylbutanoyl]-10,10-dimethyl-N-{(1R,2S)-1-[(morpholin-4-ylsulfonyl)carbamoyl]-2-vinylcyclopropyl}-7-azadispiro[3.0.4.1]decane-8-carboxamide], 450 nM; that for `C=C[C@@H]1C[C@]1(NC(=O)[C@@H]1C[C@@]2(CN1C(=O)[C@@H](NC(=O)[C@@H](NC(=O)[C@@H]1CCCCN1C(C)C)C(C)C)C(C)C)C(C)(C)C21CCC1)C(=O)NS(=O)(=O)N(CC)CC` [Compound 130, (5R,8S)-N-[(1R,2S)-1-{[(diethylamino)sulfonyl]carbamoyl}-2-vinylcyclopropyl]-7-[(2S)-2-{[(2S)-2-({[(2S)-1-isopropylpiperidin-2-yl]carbonyl}amino)-3-methylbutanoyl]amino}-3-methylbutanoyl]-10,10-dimethyl-7-azadispiro[3.0.4.1]decane-8-carboxamide], 8 nM. In the case of `C=C[C@@H]1C[C@]1(NC(=O)[C@@H]1C[C@@]2(CN1C(=O)[C@@H](NC(=O)[C@@H](NC(=O)[C@@H]1CCCCN1C(C)C)C1CCCCC1)C1CCOCC1)C(C)(C)C21CCC1)C(=O)NS(=O)(=O)N1CCCC1` [Compound 41, (5R,8S)-7-[(2S)-2-{[(2S)-2-cyclohexyl-2-({[(2S)-1-isopropylpiperidin-2-yl]carbonyl}amino)acetyl]amino}-2-(tetrahydro-2H-pyran-4-yl)acetyl]-10,10-dimethyl-N-{(1R,2S)-1-[(pyrrolidin-1-ylsulfonyl)carbamoyl]-2-vinylcyclopropyl}-7-azadispiro[3.0.4.1]decane-8-carboxamide], the IC50 is 0.9 nM.

For the compound `C=C[C@@H]1C[C@]1(NC(=O)[C@@H]1C[C@@]2(CN1C(=O)[C@@H](NC(=O)[C@@H](NC(=O)[C@@H]1CCCCN1C(C)C)C1(C)CCOCC1)C1(C)CCCCC1)C(C)(C)C21CCC1)C(=O)NS(=O)(=O)N(CC)CC` [Compound 158, (5R,8S)-N-[(1R,2S)-1-{[(diethylamino)sulfonyl]carbamoyl}-2-vinylcyclopropyl]-7-[(2S)-2-{[(2S)-2-({[(2S)-1-isopropylpiperidin-2-yl]carbonyl}amino)-2-(4-methyltetrahydro-2H-pyran-4-yl)acetyl]amino}-2-(1-methylcyclohexyl)acetyl]-10,10-dimethyl-7-azadispiro[3.0.4.1]decane-8-carboxamide], the IC50 was 22 nM. The same measure for `C=C[C@@H]1C[C@]1(NC(=O)[C@@H]1C[C@@]2(CN1C(=O)[C@@H](NC(=O)[C@@H](NC(=O)[C@@H]1CCCCN1C(C)C)C1(C)CCCCC1)C1(C)CCCCC1)C(C)(C)C21CCC1)C(=O)NS(=O)(=O)N(CC)CC` [Compound 160, (5R,8S)-N-[(1R,2S)-1-{[(diethylamino)sulfonyl]carbamoyl}-2-vinylcyclopropyl]-7-[(2S)-2-{[(2S)-2-({[(2S)-1-isopropylpiperidin-2-yl]carbonyl}amino)-2-(1-methylcyclohexyl)acetyl]amino}-2-(1-methylcyclohexyl)acetyl]-10,10-dimethyl-7-azadispiro[3.0.4.1]decane-8-carboxamide]: 3 nM. The same measure for `C=C[C@@H]1C[C@]1(NC(=O)[C@@H]1C[C@@]2(CN1C(=O)[C@@H](NC(=O)[C@@H](NC(=O)C1CN(C(C)C)C1)C(C)(C)C)C(C)(C)C)C(C)(C)C21CCC1)C(=O)NS(=O)(=O)N1CCCC1` [Compound 23, (5R,8S)-7-[(2S)-2-{[(2S)-2-{[(1-isopropylazetidin-3-yl)carbonyl]amino}-3,3-dimethylbutanoyl]amino}-3,3-dimethylbutanoyl]-10,10-dimethyl-N-{(1R,2S)-1-[(pyrrolidin-1-ylsulfonyl)carbamoyl]-2-vinylcyclopropyl}-7-azadispiro[3.0.4.1]decane-8-carboxamide]: 400 nM; for `C=C[C@@H]1C[C@]1(NC(=O)[C@@H]1C[C@@]2(CN1C(=O)[C@@H](NC(=O)[C@@H](NC(=O)c1cc(C(C)(C)C)nn1C)C1CCCCC1)C(C)(C)C)C(C)(C)C21CCC1)C(=O)NS(=O)(=O)N1CCCC1` [Compound 181, (5R,8S)-7-[(2S)-2-{[{[(3-tert-butyl-1-methyl-1H-pyrazol-5-yl)carbonyl]amino}(cyclohexyl)acetyl]amino}-3,3-dimethylbutanoyl]-10,10-dimethyl-N-{(1R,2S)-1-[(pyrrolidin-1-ylsulfonyl)carbamoyl]-2-vinylcyclopropyl}-7-azadispiro[3.0.4.1]decane-8-carboxamide]: 90 nM; for `C=C[C@@H]1C[C@]1(NC(=O)[C@@H]1C[C@@]2(CN1C(=O)[C@@H](NC(=O)[C@@H](NC(=O)C1CN(C(C)C)C1)C1CCCCC1)C(C)(C)C)C(C)(C)C21CCC1)C(=O)NS(=O)(=O)N1CCCC1` [Compound 19, (5R,8S)-7-[(2S)-2-{[(2S)-2-cyclohexyl-2-{[(1-isopropylazetidin-3-yl)carbonyl]amino}acetyl]amino}-3,3-dimethylbutanoyl]-10,10-dimethyl-N-{(1R,2S)-1-[(pyrrolidin-1-ylsulfonyl)carbamoyl]-2-vinylcyclopropyl}-7-azadispiro[3.0.4.1]decane-8-carboxamide]: 55 nM.

Turning to `CC[C@@H]1C[C@]1(NC(=O)[C@@H]1C[C@@]2(CN1C(=O)[C@@H](NC(=O)[C@@H](NC(=O)[C@H]1CCCCN1C(C)C)C1CCCCC1)C(C)(C)C)C(C)(C)C21CCC1)C(=O)NS(=O)(=O)N1CCCC1` [Compound 123, (5R,8S)-7-[(2S)-2-{[(2S)-2-cyclohexyl-2-({[(2R)-1-isopropylpiperidin-2-yl]carbonyl}amino)acetyl]amino}-3,3-dimethylbutanoyl]-N-{(1R,2R)-2-ethyl-1-[(pyrrolidin-1-ylsulfonyl)carbamoyl]cyclopropyl}-10,10-dimethyl-7-azadispiro[3.0.4.1]decane-8-carboxamide], the IC50 was found to be 8 nM. The result for `C=C[C@@H]1C[C@]1(NC(=O)[C@@H]1C[C@@]2(CN1C(=O)[C@@H](NC(=O)[C@@H](NC(=O)[C@@H]1Cc3[nH]cnc3CN1)C(C)(C)C)C(C)(C)C)C(C)(C)C21CCC1)C(=O)NS(=O)(=O)N1CCCC1` [Compound 29, (5R,8S)-7-[(2S)-2-{[(2S)-3,3-dimethyl-2-{[(6S)-4,5,6,7-tetrahydro-1H-imidazo[4,5-c]pyridin-6-ylcarbonyl]amino}butanoyl]amino}-3,3-dimethylbutanoyl]-10,10-dimethyl-N-{(1R,2S)-1-[(pyrrolidin-1-ylsulfonyl)carbamoyl]-2-vinylcyclopropyl}-7-azadispiro[3.0.4.1]decane-8-carboxamide] reads 40 nM. The same measure for `C=C[C@@H]1C[C@]1(NC(=O)C1C[C@@]2(CN1C(=O)[C@@H](NC(=O)c1cccc(C(=O)NCCC)c1)C(C)(C)C)C(C)(C)C21CCC1)C(=O)NS(=O)(=O)N1CCCC1` (stereo partly drawn) [Compound 68, N-[(1S)-1-{[(5R)-10,10-dimethyl-8-({(1R,2S)-1-[(pyrrolidin-1-ylsulfonyl)carbamoyl]-2-vinylcyclopropyl}carbamoyl)-7-azadispiro[3.0.4.1]dec-7-yl]carbonyl}-2,2-dimethylpropyl]-N′-propylisophthalamide]: 950 nM.

For the compound `C=C[C@@H]1C[C@]1(NC(=O)[C@@H]1C[C@@]2(CN1C(=O)[C@@H](NC(=O)[C@@H](NC(=O)[C@@H]1CCCCN1CC(F)F)C1CCCCC1)C1CCOCC1)C(C)(C)C21CCC1)C(=O)NS(=O)(=O)N1CCCC1` [Compound 74, (5R,8S)-7-[(2S)-2-{[(2S)-2-cyclohexyl-2-({[(2S)-1-(2,2-difluoroethyl)piperidin-2-yl]carbonyl}amino)acetyl]amino}-2-(tetrahydro-2H-pyran-4-yl)acetyl]-10,10-dimethyl-N-{(1R,2S)-1-[(pyrrolidin-1-ylsulfonyl)carbamoyl]-2-vinylcyclopropyl}-7-azadispiro[3.0.4.1]decane-8-carboxamide], the IC50 was found to be 65 nM.
